Where a name gives a salt, the structure may show the parent alone.
Assays:
[1] = biological target: T1, α1A Human Adrenergic Receptor (Homo sapiens, UniProt P25100); experiment: Radioligand binding, [3H]prazosin, cloned human α1A adrenergic receptor; settings: [3H]prazosin; for Ki: read-out: pKi alpha-1 1a (converted)
T1 construct: The entire coding region of α1A (1719 bp); expressed in transfected cells
T1 sequence (P25100 1-572): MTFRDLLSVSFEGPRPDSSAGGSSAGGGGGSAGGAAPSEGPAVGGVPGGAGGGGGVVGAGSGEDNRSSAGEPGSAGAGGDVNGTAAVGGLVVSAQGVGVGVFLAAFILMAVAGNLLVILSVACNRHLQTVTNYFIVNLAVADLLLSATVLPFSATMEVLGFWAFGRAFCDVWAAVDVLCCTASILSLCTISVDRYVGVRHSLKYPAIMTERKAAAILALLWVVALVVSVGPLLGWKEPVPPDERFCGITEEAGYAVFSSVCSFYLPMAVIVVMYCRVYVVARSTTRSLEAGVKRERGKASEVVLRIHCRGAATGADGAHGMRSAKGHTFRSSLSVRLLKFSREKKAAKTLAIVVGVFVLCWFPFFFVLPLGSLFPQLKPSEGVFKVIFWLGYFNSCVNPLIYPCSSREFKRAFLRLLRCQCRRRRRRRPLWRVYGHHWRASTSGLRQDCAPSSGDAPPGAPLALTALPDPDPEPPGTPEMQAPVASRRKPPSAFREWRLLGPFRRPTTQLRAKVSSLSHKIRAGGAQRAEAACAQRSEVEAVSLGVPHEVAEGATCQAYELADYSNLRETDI
Outline: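 Membranes from LM(tk−) cells transfected with human α1A were incubated with 0.5 nM [3H]prazosin in 50 mM Tris-HCl, 1 mM MgCl2, 0.1% ascorbic acid, pH 7.5, for 20 min at 37° C. Nonspecific binding was defined with 10 μM phentolamine. Bound ligand was separated by GF/B filtration.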

[2] = biological target: T2, α1B Human Adrenergic Receptor (Homo sapiens, UniProt P35368); experiment: Radioligand binding, [3H]prazosin, cloned human α1B adrenergic receptor; settings: for Ki: read-out: pKi alpha-1 1b (converted)
T2 construct: The entire coding region of α1B (1563 bp); expressed in transfected cells
T2 sequence (P35368 1-520): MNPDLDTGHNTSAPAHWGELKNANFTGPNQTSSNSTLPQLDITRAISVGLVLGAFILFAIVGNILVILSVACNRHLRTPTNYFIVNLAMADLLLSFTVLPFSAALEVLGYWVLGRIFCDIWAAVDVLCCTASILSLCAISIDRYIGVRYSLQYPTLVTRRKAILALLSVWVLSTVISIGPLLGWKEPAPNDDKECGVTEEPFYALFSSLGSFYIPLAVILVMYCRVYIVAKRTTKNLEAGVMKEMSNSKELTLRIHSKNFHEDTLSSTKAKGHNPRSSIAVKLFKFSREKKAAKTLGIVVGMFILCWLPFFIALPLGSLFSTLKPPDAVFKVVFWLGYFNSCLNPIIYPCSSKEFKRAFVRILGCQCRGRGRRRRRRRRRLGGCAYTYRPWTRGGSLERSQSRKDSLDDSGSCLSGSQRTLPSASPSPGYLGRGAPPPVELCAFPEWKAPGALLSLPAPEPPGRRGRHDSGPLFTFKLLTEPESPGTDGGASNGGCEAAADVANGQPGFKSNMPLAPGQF
Outline: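 Membranes from stably transfected LM(tk−) cells, resuspended in 50 mM Tris-HCl, 1 mM MgCl2, 0.1% ascorbic acid, pH 7.5, were incubated with 0.5 nM [3H]prazosin for 20 min at 37° C. Nonspecific binding defined with 10 μM phentolamine; bound ligand separated by GF/B filtration.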

α2B receptor = biological target: T3, α2B receptor (Homo sapiens, UniProt P18089); experiment: Competition binding, [3H]rauwolscine, human α2B receptor; settings: [3H]rauwolscine; for Ki: read-out: pKi alpha-2 2b (converted)
T3 construct: host or cells: LM(tk-) cells, line L-NGC-α2B
T3 sequence (P18089 1-450): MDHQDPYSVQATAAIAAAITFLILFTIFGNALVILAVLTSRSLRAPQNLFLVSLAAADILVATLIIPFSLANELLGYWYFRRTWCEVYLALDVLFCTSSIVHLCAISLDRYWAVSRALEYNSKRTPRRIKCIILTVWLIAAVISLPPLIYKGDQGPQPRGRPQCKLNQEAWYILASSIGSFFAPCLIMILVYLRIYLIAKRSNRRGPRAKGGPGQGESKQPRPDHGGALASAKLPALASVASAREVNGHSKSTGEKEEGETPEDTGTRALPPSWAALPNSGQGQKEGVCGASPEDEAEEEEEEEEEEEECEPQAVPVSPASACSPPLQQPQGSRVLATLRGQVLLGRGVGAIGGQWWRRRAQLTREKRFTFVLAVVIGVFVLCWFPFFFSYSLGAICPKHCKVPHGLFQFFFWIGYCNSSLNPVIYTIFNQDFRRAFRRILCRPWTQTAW
Outline: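 Using 25 mM glycylglycine buffer at pH 7.6 (room temperature), membranes from LM(tk−) cells carrying α2A, α2B or α2C were competed against 0.5 nM [3H]rauwolscine to equilibrium. Separation was by GF/B filtration; phentolamine (10 μM) set nonspecific binding.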

[3] = cloned human receptor in LM(tk-) cell membranes, SEM and n in lines below
[4] = LM(tk-) cell line L-NGC-α2B, SEM and n in lines below

Work on `COC(=O)C1=C(C)NC(C)=C(C(=O)NCCCN2CCCCC2)C1c1ccc([N+](=O)[O-])cc1` (stereo not drawn) [Example 51, 1,4-Dihydro-3-methoxycarbonyl-2,6-dimethyl-4-(4-nitrophenyl)-5-{N-[3-(piperidin-1-yl)propyl]}carboxamidopyridine hydrochloride etherate] yielded a Ki [1, 3] of 9770 nM, a Ki [2, 3] of 5010 nM and a Ki (α2B receptor; [4]) of 513 nM.
With `COC(=O)C1=C(C)NC(C)=C(C(=O)NCCCCN2CCC(c3ccccc3)(c3ccccc3)CC2)C1c1ccc([N+](=O)[O-])cc1.Cl.O` (stereo not drawn) [Example 53, 1,4-Dihydro-3-methoxycarbonyl-2,6-dimethyl-4-(4-nitrophenyl)-5-{N-[4-(4,4-diphenylpiperidin-1-yl)butyl]}carboxamidopyridine hydrochloride hydrate] the “pKi alpha-1 1a” value [1, 3] was 6.49, the “pKi alpha-1 1b” value [2, 3] was 6.87 and the “pKi alpha-2 2b” value (α2B receptor; [4]) was 6.34.
Compound `COC(=O)C1=C(C)NC(C)=C(C(=O)NCCCN2CCc3cc(OC)c(OC)cc3C2)C1c1ccc([N+](=O)[O-])cc1` (stereo not drawn) [Example 57, 1,4-Dihydro-3-methoxycarbonyl-5-{N-[3-(1,2,3,4-tetrahydro-6,7-dimethoxyisoquinolin-2-yl)propyl]}carboxamido-2,6-dimethyl-4-(4-nitrophenyl)pyridine hydrochloride hydrate] has a Ki [1, 3] of 1620 nM, a Ki [2, 3] of 1230 nM and a Ki (α2B receptor; [4]) of 1860 nM.
Compound `COc1cc2c(cc1OC)CN(CCCNC(=O)C1=C(C)NC(C)=C(C(N)=O)C1c1ccc([N+](=O)[O-])cc1)CC2` (stereo not drawn) [Example 58, 5-Carboxamido-1,4-dihydro-3-{N-[3-(1,2,3,4-tetrahydro-6,7-dimethoxyisoquinolin-2-yl)propyl]}carboxamido-2,6-dimethyl-4-(4-nitrophenyl)pyridine hydrochloride] has a Ki [1, 3] of 3020 nM, a Ki [2, 3] of 2290 nM and a Ki (α2B receptor; [4]) of 1450 nM.
`CC1=C(C(N)=O)C(c2ccc([N+](=O)[O-])cc2)C(C(=O)NCCCN2CCC(c3ccccc3)CC2)=C(C)N1` (stereo not drawn) [Example 60, 5-Carboxamido-1,4-dihydro-2,6-dimethyl-4-(4-nitrophenyl)-3-{N-[3-(4-phenylpiperidin-1-yl)propyl]}carboxamidopyridine] showed a Ki [1, 3] of 200 nM, a Ki [2, 3] of 77.6 nM and a Ki (α2B receptor; [4]) of 69.2 nM.
`CC1=C(C(N)=O)C(c2cccc([N+](=O)[O-])c2)C(C(=O)NCCCN2CCC(c3ccccc3)CC2)=C(C)N1` (stereo not drawn) [Example 62] showed a Ki [1, 3] of 339 nM, a Ki [2, 3] of 316 nM and a Ki (α2B receptor; [4]) of 57.5 nM.
`CC1=C(C(=O)NCCCN2CCC(c3ccccc3)CC2)C(c2ccc([N+](=O)[O-])cc2)c2c([nH]c(=O)[nH]c2=O)N1` (stereo not drawn) [Example 63, 1,4-Dihydro-6-methyl-4-(4-nitrophenyl)-5-{N-[3-(4-phenylpiperidin-1-yl)propyl]}carboxamido-[2,3, d]uracilylpyridine] showed a Ki [1, 3] of 44.7 nM, a Ki [2, 3] of 18.6 nM and a Ki (α2B receptor; [4]) of 132 nM.
Compound `COC(=O)C1=C(C)NC(c2ccoc2)=C(C(=O)NCCCN2CCC(c3ccccc3)CC2)C1c1ccc([N+](=O)[O-])cc1` (stereo not drawn) [Example 65, 2-(Furan-3-yl)-1,4-dihydro-5-methoxycarbonyl-6-methyl-4-(4-nitrophenyl)-5-{N-[3-(4-phenylpiperidin-1-yl)propyl]}carboxamidopyridine hydrochloride hydrate] has a Ki [1, 3] of 129 nM, a Ki [2, 3] of 57.5 nM and a Ki (α2B receptor; [4]) of 97.7 nM.
For `CC1=C(C(N)=O)C(c2ccc([N+](=O)[O-])cc2)C(C(=O)NC2CCN(Cc3ccccc3)CC2)=C(c2ccoc2)N1.Cl.O` (stereo not drawn) [Example 66], the “pKi alpha-1 1a” value [1, 3] was 5.45, the “pKi alpha-1 1b” value [2, 3] was 5.36 and the “pKi alpha-2 2b” value (α2B receptor; [4]) was 5.35.
With `COc1cc2c(c(OC)c1)CCN(CCCNC(=O)C1=C(c3ccoc3)NC(C)=C(C(N)=O)C1c1ccc([N+](=O)[O-])cc1)C2.Cl.O` (stereo not drawn) [Example 67] the “pKi alpha-1 1a” value [1, 3] was 5.96, the “pKi alpha-1 1b” value [2, 3] was 6.18 and the “pKi alpha-2 2b” value (α2B receptor; [4]) was 5.79.
In the case of `CCC1=C(C(=O)NCCCN2CCC(c3ccccc3)CC2)C(c2ccc([N+](=O)[O-])cc2)C(C(=O)OC)=C(C)N1` (stereo not drawn) [Example 74, 2-Ethyl-1,4-dihydro-5-methoxycarbonyl-6-methyl-4-(4-nitro)phenyl-3-(N-(3-(4-phenylpiperidin-1-yl)propyl)) carboxamidopyridine hydrochloride hydrate], the Ki [1, 3] is reported as 58.9 nM, the Ki [2, 3] is reported as 19.1 nM and the Ki (α2B receptor; [4]) is reported as 89.1 nM.
With `CCC1=C(C(=O)NC2CCN(Cc3ccccc3)CC2)C(c2ccc([N+](=O)[O-])cc2)C(C(=O)OC)=C(C)N1` (stereo not drawn) [Example 75, 2-Ethyl-1,4-dihydro-5-methoxycarbonyl-6-methyl-4-(4-nitro)phenyl-3-(N-(N-phenylmethyl)piperidin-4-yl)carboxamidopyridine hydrochloride] the Ki [1, 3] was 4370 nM, the Ki [2, 3] was 3890 nM and the Ki (α2B receptor; [4]) was 3090 nM.
With `CCC1=C(C(=O)NCCCN2CCc3cc(OC)c(OC)cc3C2)C(c2ccc([N+](=O)[O-])cc2)C(C(N)=O)=C(C)N1.Cl.O` (stereo not drawn) [Example 76, 5-Carboxamido-2-ethyl-1,4-dihydro-3-(N-(3-(1,2,3,4-tetrahydro-6,7-dimethoxyisoquinolin-2-yl)propyl)) carboxamido-6-methyl-4-(4-nitro)phenylpyridine hydrochloride hydrate] the “pKi alpha-1 1a” value [1, 3] was 5.89, the “pKi alpha-1 1b” value [2, 3] was 5.88 and the “pKi alpha-2 2b” value (α2B receptor; [4]) was 5.64.
With `CCC1=C(C(=O)NCCCCN2CCC(c3ccccc3)CC2)C(c2ccc([N+](=O)[O-])cc2)C(C(N)=O)=C(C)N1.Cl.O` (stereo not drawn) [Example 77, 5-Carboxamido-2-ethyl-1,4-dihydro-6-methyl-4-(4-nitro)phenyl-3-(N-(4-(4-phenylpiperidin-1-yl)butyl))carboxamidopyridine hydrochloride hydrate] the “pKi alpha-1 1a” value [1, 3] was 6.83, the “pKi alpha-1 1b” value [2, 3] was 7.16 and the “pKi alpha-2 2b” value (α2B receptor; [4]) was 7.08.
`COC(=O)C1=C(C)NC(c2ccccc2)=C(C(=O)NCCCN2CCC(c3ccccc3)CC2)C1c1ccc([N+](=O)[O-])cc1.Cl` (stereo not drawn) [Example 79, 1,4-Dihydro-5-methoxycarbonyl-6-methyl-4-(4-nitro)phenyl-2-phenyl-3-(N-(3-(4-phenylpiperidin-1-yl)propyl)) carboxamidopyridine hydrochloride] was tested, and the “pKi alpha-1 1a” value [1, 3] was 6.99, the “pKi alpha-1 1b” value [2, 3] was 7.33 and the “pKi alpha-2 2b” value (α2B receptor; [4]) was 7.28.
`CCOC(=O)C1=C(CNCCCN2CCC(c3ccccc3)(c3ccccc3)CC2)NC(C)=C(C(=O)OC)C1c1ccc([N+](=O)[O-])cc1.Cl.O` (stereo not drawn) [Example 90, 3-Ethoxycarbonyl-1,4-dihydro-5-methoxycarbonyl-6-methyl-4-(4-nitro)phenyl-2-(N-(3-(4,4,-diphenylpiperidin-1-yl)propyl)amino)methylpyridine, hydrochloride hydrate] was tested, and the “pKi alpha-1 1a” value ([1]; cloned human α1A receptor, LM(tk−) cell membranes) was 6.52, the “pKi alpha-1 1b” value ([2]; cloned human α1B receptor, LM(tk−) cell membranes) was 6.87 and the “pKi alpha-2 2b” value (α2B receptor; human α2B receptor, LM(tk−) cells) was 6.04.

— patent US6608086B2, “Dihydropyridines and new uses thereof” (Synaptic Pharmaceutical Corporation, priority 1993, dated 2003)
